Measured values reported in the NIST ThermoML archive (doi:10.1016/j.fluid.2007.07.023).
Numbers after ± are expanded uncertainties.

Key:
[1] = 101.33 kPa, Liquid
[2] = refractive index (Na D-line) (dimensionless); details: 101.33 kPa, Liquid, Standard Abbe refractometry

Row | Compound | mass density ([1]; 293.15 K) [kg/m3] | refractive index ([2]; 293.15 K) | other results
1 | Cc1ccccc1 [toluene] | 866.78 ± 0.89 | 1.496 ± 0.0007 | 
2 | NC1CCCCC1 [cyclohexylamine] |  |  | mass density ([1]; 303.15 K): 858.2 ± 0.91 kg/m3; refractive index ([2]; 288.15 K): 1.4624 ± 0.0007
3 | CCCCCCCC [octane] |  |  | mass density ([1]; 298.15 K): 698.49 ± 0.71 kg/m3; refractive index ([2]; 298.15 K): 1.3946 ± 0.0007
4 | Nc1ccccc1 [aniline] | 1021.72 ± 1.6 | 1.5962 ± 0.0007 | 
